Laboratory results: patent US6803191B2, “Candida albicans two-component hybrid kinase gene, CaNik1, and use thereof” (University of Iowa Research Foundation, priority 1997, dated 2004)
Marks after values point to notes of the source that are not given here.

Tested on: homozygous deletion mutant (HH80)
Experiment: Growth of CaNik1 deletion mutant HH80 spot plated on agar plates with supplements (osmotic agents, inhibitors, carbon sources)
Type: cell-based, Candida albicans
Conditions: for Phenotypic effect in HH80: growth on agar plates: Lee's modified medium or YPD, 2 or 3 days at 25° C. and 37° C.; for Differential sensitivity: growth of mutant strain HH80 versus control strains CAI8 and CAI8U5: agar with modified Lee's medium plus ingredient, 25° C. and 37° C., three independent experiments
Description: Finally, growth of the CaNik1 deletion mutant HH80 was tested at 25° C. and 37° C. for differential sensitivity to osmotic strength and a variety of inhibitors.

| Molecule | Differential sensitivity: growth of mutant strain HH80 versus control strains CAI8 and CAI8U5 | also measured |
| --- | --- | --- |
| [Cl-].[Na+] [NaCl] | no qualitative differences | Phenotypic effect in HH80: growth on agar plates (1 M NaCl): ++; Phenotypic effect in HH80: growth on agar plates (1.5 M NaCl): + |
| OC[C@@H](O)[C@H](O)[C@@H](O)CO [Xylitol] | – | Phenotypic effect in HH80: growth on agar plates (1 M Xylitol): ++++ |
| O=S(=O)([O-])[O-].[Mg+2] [MgSO4] | no qualitative differences | Phenotypic effect in HH80: growth on agar plates (0.5 m MgSO4): ++ |
| [Cl-].[K+] [KCl] | no qualitative differences | Phenotypic effect in HH80: growth on agar plates (1 M KCl): ++ |
| OC[C@@H](O)[C@@H](O)[C@H](O)[C@@H](O)CO [Sorbitol] | no qualitative differences | Phenotypic effect in HH80: growth on agar plates (1.2 M Sorbitol): ++++ |
| Cn1c(=O)c2c(ncn2C)n(C)c1=O [Caffeine] | no qualitative differences | – |
| O=S(=O)([O-])c1cc(Nc2nc(Nc3ccccc3)nc(N(CCO)CCO)n2)ccc1/C=C/c1ccc(Nc2nc(Nc3ccccc3)nc(N(CCO)CCO)n2)cc1S(=O)(=O)[O-].[Na+].[Na+] [Calcofluor] | no qualitative differences | Phenotypic effect in HH80: growth on agar plates (Calcofluor 20-40 μg/mL): +++^v |
| polymyxin B | no qualitative differences | – |
